Experimental data: patent publication US9999222B2, “Herbicidal combination comprising azines” (BASF SE, priority 2014, dated 2018)

What was measured:
Experiment in all cases: Greenhouse test, pre-emergence treatment
ANTAR = format: in vivo; conditions: Anthemis arvensis, 480 h, 20 DAT, read-out: observed % activity
Text: (§1) The culture containers used were plastic flowerpots containing loamy sand with approximately 3.0% of humus as the substrate. The seeds of the test plants were sown separately for each species.
(§2) For the pre-emergence treatment, the active ingredients, which had been suspended or emulsified in water, were applied directly after sowing by means of finely distributing nozzles. The containers were irrigated gently to promote germination and growth and subsequently covered with transparent plastic hoods until the plants had rooted. This cover caused uniform germination of the test plants, unless this had been impaired by the active ingredients.
(§3) Depending on the species, the plants were kept at 10-25° C. or 20-35° C., respectively.
(§4) The test period extended over 2 to 4 weeks. During this time, the plants were tended, and their response to the individual treatments was evaluated.
(§5) Evaluation was carried out using a scale from 0 to 100. 100 means no emergence of the plants, or complete destruction of at least the aerial moieties, and 0 means no damage, or normal course of growth. A moderate herbicidal activity is given at values of at least 60, a good herbicidal activity is given at values of at least 70, and a very good herbicidal activity is given at values of at least 85.
(§6) The respective stated components a and b, and if appropriate, c were formulated as a 10% by weight strength emulsion concentrate and, with addition of the amount of solvent system, introduced into the spray liquor used for applying the active compound.
(§7) In the examples, the solvent used was water.
(§8) In the examples below, using the method of S. R. Colby (1967) “Calculating synergistic and antagonistic responses of herbicide combinations”, Weeds 15, p. 22ff., the value E, which is expected if the activity of the individual active compounds is only additive, was calculated. E=X+Y−(X·Y/100) where • X=percent activity using active compound a at an application rate A; • Y=percent activity using active compound b at an application rate B; • E=expected activity (in %) by a+b at application rates A+B.
(§9) If the value found experimentally is higher than the value E calculated according to Colby, a synergistic effect is present.

COMBE = format: in vivo, Commelina benghalensis; conditions: Commelina benghalensis, pre-emergence, 480 h
Text: as §1, §2, §3, §4, §5, §6, §7, §8, §9

SIDRH = format: in vivo, Sida rhombifolia; conditions: Sida rhombifolia, pre-emergence, 480 h
Text: as §1, §2, §3, §4, §5, §6, §7, §8, §9

CENCY = format: in vivo; conditions: 480 h, individual, read-out: observed % activity 20 DAT
POLCO = format: in vivo, Polygonum convolvulus; conditions: pre-emergence
Text: as §1, §2, §3, §4, §5, §6, §7, §8, §9

GERPU = format: in vivo, Geranium pusillum; conditions: Geranium pusillum, pre-emergence, 480 h
Text: as §1, §2, §3, §4, §5, §6, §7, §8, §9

GALAP = format: in vivo, Galium aparine; conditions: Galium aparine, pre-emergence, 480 h
Text: as §1, §2, §3, §4, §5, §6, §7, §8, §9

KCHSC = format: in vivo, Kochia scoparia; conditions: Bassia scoparia, pre-emergence, 480 h
Text: as §1, §2, §3, §4, §5, §6, §7, §8, §9

ABUTH = format: in vivo, Abutilon theophrasti; conditions: Abutilon theophrasti, 480 h
Text: as §1, §2, §3, §4, §5, §6, §7, §8, §9

IPOHE = format: in vivo, Ipomoea hederacea; conditions: Ipomoea hederacea, 480 h, 30 g ai/ha, read-out: observed % activity 20 DAT
Text: as §1, §2, §3, §4, §5, §6, §7, §8, §9

EPHHL = format: in vivo, Euphorbia heterophylla; conditions: Euphorbia heterophylla, pre-emergence, 480 h, pre-emergence, 30 g ai/ha; read-out: observed % activity 20 DAT
Text: as §1, §2, §3, §4, §5, §6, §7, §8, §9

[1] = 6 g ai/ha, 20 DAT, read-out: observed % activity
[2] = 12 g ai/ha, 20 DAT, read-out: observed % activity
[3] = 20 g ai/ha, 20 DAT, read-out: observed % activity
[4] = 40 g ai/ha, 20 DAT, read-out: observed % activity
[5] = 15 g ai/ha, read-out: observed % activity 20 DAT
[6] = 30 g ai/ha, read-out: observed % activity 20 DAT

Cc1nn(-c2cc(NS(C)(=O)=O)c(Cl)cc2Cl)c(=O)n1C(F)F [Sulfentrazone, sulfentrazone]
inhibition at 6 g/ha (ANTAR; 6 g ai/ha): 30%
inhibition at 12 g/ha (ANTAR; 12 g ai/ha): 60%
inhibition at 6 g/ha (COMBE; [1]): 20%
inhibition at 12 g/ha (COMBE; [2]): 45%
inhibition at 10 g/ha (COMBE; COMBE, individual, use rate 10 g ai/ha, read-out: observed % activity 20 DAT): 15%
inhibition at 6 g/ha (SIDRH; [1]): 20%
inhibition at 10 g/ha (SIDRH; SIDRH, individual, use rate 10 g ai/ha, read-out: observed % activity 20 DAT): 30%
inhibition at 5 g/ha (CENCY; use rate 5 g ai/ha): 20%
inhibition at 10 g/ha (CENCY; use rate 10 g ai/ha): 30%
inhibition at 6 g/ha (POLCO; Fallopia convolvulus, 480 h, 6 g ai/ha, 20 DAT, read-out: observed % activity): 0%
inhibition at 12 g/ha (POLCO; Fallopia convolvulus, 480 h, 12 g ai/ha, 20 DAT, read-out: observed % activity): 0%
inhibition at 10 g/ha (POLCO; Fallopia convolvulus, 480 h, POLCO, individual, use rate 10 g ai/ha, read-out: observed % activity 20 DAT): 25%
observed % activity 20 DAT (POLCO; POLCO, individual, use rate 5 g ai/ha): 40%
inhibition at 6 g/ha (GERPU; [1]): 40%
inhibition at 12 g/ha (GERPU; [2]): 45%
inhibition at 6 g/ha (GALAP; [1]): 0%
inhibition at 5 g/ha (GALAP; GALAP, individual, use rate 5 g ai/ha, read-out: observed % activity 20 DAT): 25%
inhibition at 10 g/ha (GALAP; GALAP, individual, use rate 10 g ai/ha, read-out: observed % activity 20 DAT): 50%
inhibition at 12 g/ha (KCHSC; [2]): 98%
inhibition at 5 g/ha (KCHSC; KCHSC, individual, use rate 5 g ai/ha, read-out: observed % activity 20 DAT): 70%
inhibition at 10 g/ha (KCHSC; KCHSC, individual, use rate 10 g ai/ha, read-out: observed % activity 20 DAT): 65%
inhibition at 6 g/ha (ABUTH; [1]): 20%
inhibition at 12 g/ha (ABUTH; [2]): 45%
inhibition at 10 g/ha (ABUTH; ABUTH, individual, use rate 10 g ai/ha, read-out: observed % activity 20 DAT): 25%

CCc1cnc(C2=NC(C)(C(C)C)C(=O)N2)c(C(=O)O)c1 (centres unmarked) [imazethapyr]
inhibition at 20 g/ha (ANTAR; 20 g ai/ha): 30%
inhibition at 40 g/ha (ANTAR; 40 g ai/ha): 30%
inhibition at 30 g/ha (IPOHE): 0%
inhibition at 20 g/ha (COMBE; [3]): 45%
inhibition at 40 g/ha (COMBE; [4]): 65%
inhibition at 15 g/ha (COMBE; [5]): 0%
inhibition at 30 g/ha (COMBE; [6]): 35%
inhibition at 20 g/ha (SIDRH; [3]): 45%
inhibition at 40 g/ha (SIDRH; [4]): 80%
inhibition at 15 g/ha (SIDRH; [5]): 15%
inhibition at 30 g/ha (SIDRH; [6]): 60%
inhibition at 30 g/ha (EPHHL): 65%
inhibition at 20 g/ha (POLCO; Fallopia convolvulus, 480 h, 20 g ai/ha, 20 DAT, read-out: observed % activity): 35%
inhibition at 40 g/ha (POLCO; Fallopia convolvulus, 480 h, 40 g ai/ha, 20 DAT, read-out: observed % activity): 90%
inhibition at 15 g/ha (POLCO; Fallopia convolvulus, 480 h, 15 g ai/ha, read-out: observed % activity 20 DAT): 30%
inhibition at 30 g/ha (POLCO; Fallopia convolvulus, 480 h, 30 g ai/ha, read-out: observed % activity 20 DAT): 65%
observed % activity 20 DAT (POLCO; 30 g ai/ha): 60%
inhibition at 20 g/ha (GERPU; [3]): 20%
inhibition at 40 g/ha (GERPU; [4]): 85%
inhibition at 15 g/ha (GERPU; [5]): 30%
inhibition at 30 g/ha (GERPU; [6]): 30%
inhibition at 15 g/ha (GALAP; [5]): 50%
inhibition at 30 g/ha (GALAP; [6]): 60%
inhibition at 15 g/ha (KCHSC; [5]): 70%
inhibition at 30 g/ha (KCHSC; [6]): 85%
inhibition at 15 g/ha (ABUTH; [5]): 0%
inhibition at 20 g/ha (ABUTH; [3]): 60%
inhibition at 30 g/ha (ABUTH; [6]): 15%
inhibition at 40 g/ha (ABUTH; [4]): 80%
